Data reported in PMC2483479 (Acta Crystallographica Section D: Biological Crystallography, 2007).

T1: E. coli KAS I (Escherichia coli, UniProt P0A953)
T1 sequence (P0A953 1-406): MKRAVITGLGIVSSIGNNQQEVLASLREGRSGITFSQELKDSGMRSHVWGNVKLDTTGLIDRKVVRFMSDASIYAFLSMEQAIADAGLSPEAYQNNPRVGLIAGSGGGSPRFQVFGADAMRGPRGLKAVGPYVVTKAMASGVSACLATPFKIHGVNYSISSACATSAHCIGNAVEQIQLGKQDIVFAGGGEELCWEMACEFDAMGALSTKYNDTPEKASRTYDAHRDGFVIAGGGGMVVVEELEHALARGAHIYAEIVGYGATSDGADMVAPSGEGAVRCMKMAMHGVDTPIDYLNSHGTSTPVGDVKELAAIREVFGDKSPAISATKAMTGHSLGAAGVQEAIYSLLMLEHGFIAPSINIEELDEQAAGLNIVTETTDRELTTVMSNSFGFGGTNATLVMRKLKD

B1: Escherichia coli β-ketoacyl-ACP synthase I (KAS I) (enzyme)
chain: T1 sequence (P0A953 1-406)

How the values were obtained:
[1] = target: T1, E. coli KAS I; test: X-ray crystal structure; assay type: binding; details: 0.3 mM thiolactomycin, 2.3 M ammonium sulfate, 0.1 M Tris-HCl pH 7.5, 3% DMSO; active site
[2] = target: the molecule itself; test: crystal structure

Molecule | X-ray crystal structure (crystal soaking) [1] | binding result [2]
C=C/C(C)=C/[C@@]1(C)SC(=O)C(C)=C1O [thiolactomycin] | clearly confirmed binding of thiolactomycin at the active site | –
B1 | – | binds
